Reference: BindingDB's records for doi:10.1097/00001756-199710200-00002 (Cnrs Upr 9023, 1997)
“And” between values parts separate entries of the source, which are not always exact repeats. Equal entries are not always repeated.

Legend:
[1] = biological target: 5-hydroxytryptamine receptor 4 (Rattus norvegicus, UniProt Q62758)
[2] = biological target: 5-hydroxytryptamine receptor 4 (Homo sapiens, UniProt Q13639)
Sequence of 5-hydroxytryptamine receptor 4 (Homo sapiens, UniProt Q13639) (Q13639 whole entry): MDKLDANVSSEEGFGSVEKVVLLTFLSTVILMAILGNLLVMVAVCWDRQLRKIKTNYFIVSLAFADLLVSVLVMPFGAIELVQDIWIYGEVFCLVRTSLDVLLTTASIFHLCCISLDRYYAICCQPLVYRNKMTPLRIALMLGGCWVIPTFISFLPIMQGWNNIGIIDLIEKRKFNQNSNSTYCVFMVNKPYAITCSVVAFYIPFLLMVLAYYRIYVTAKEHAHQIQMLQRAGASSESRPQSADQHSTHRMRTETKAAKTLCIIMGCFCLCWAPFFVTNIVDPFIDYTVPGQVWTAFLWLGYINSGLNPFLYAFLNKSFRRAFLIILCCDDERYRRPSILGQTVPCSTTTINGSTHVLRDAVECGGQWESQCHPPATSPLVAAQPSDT

Sequence of 5-hydroxytryptamine receptor 4 (Rattus norvegicus, UniProt Q62758) (Q62758 whole entry): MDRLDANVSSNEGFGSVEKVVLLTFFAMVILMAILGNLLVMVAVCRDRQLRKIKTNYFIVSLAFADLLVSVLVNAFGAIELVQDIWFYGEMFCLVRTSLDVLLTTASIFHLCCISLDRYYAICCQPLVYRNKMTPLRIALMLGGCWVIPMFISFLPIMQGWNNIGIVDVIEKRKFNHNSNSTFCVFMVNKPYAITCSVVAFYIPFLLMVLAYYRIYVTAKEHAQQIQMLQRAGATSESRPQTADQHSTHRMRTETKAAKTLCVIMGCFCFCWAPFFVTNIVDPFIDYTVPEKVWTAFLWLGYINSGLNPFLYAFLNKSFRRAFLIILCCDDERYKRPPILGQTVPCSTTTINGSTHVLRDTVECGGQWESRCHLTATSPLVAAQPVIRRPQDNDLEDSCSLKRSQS

SMILES	Ki [1]	Ki [2]
COc1[nH]c2ccc(F)cc2c1C(=O)OCC1CCN(CCNS(C)(=O)=O)CC1 [GR-125487]	0.0089 nM	0.02 nM
CC(C)n1c(=O)n(C(=O)NC2CC3CCC(C2)N3C)c2ccccc21 (centres undefined) [BIMU 8]	19.1 nM	45.7 nM
NCCc1c[nH]c2ccc(C(N)=O)cc12 [[3H]-5-carboxamidotryptamine]	9120 nM	–
COc1ccc2[nH]cc(CCN)c2c1 [tryptamine, 5-Methoxy]	123 nM	155 nM
COc1cc(N)c(Cl)cc1C(=O)NC1CN2CCC1CC2 (centres undefined) [ZACOPRIDE,R]	186 nM	282 nM
COc1ccc2[nH]c(=O)n(C(=O)OC3CC4CCC(C3)N4C)c2c1 (centres undefined) [DAU 6285]	22.4 nM and 5.37 nM	18.6 nM and 10.5 nM
Cn1cc(C(=O)OCC2CCN(CCNS(C)(=O)=O)CC2)c2ccccc21 [GR 113808]	0.02 nM and 0.03 nM	0.02 nM and 0.09 nM
COc1cc(N)c(Cl)cc1C(=O)NC1CCN2CCCC1C2 (centres undefined) [NSC_3035240]	112 nM	–
